The values that follow come from patent US20130017616A1, “Methods For Treating Inflammation” (Vanderbilt University - Center for Technology Transfer and …, priority 2011, published 2013).

Assay [1] addresses T1, RNase (Bos taurus, UniProt P61823).
T1 construct: purchased Worthington Biochemical Corporation
T1 sequence (P61823 27-150): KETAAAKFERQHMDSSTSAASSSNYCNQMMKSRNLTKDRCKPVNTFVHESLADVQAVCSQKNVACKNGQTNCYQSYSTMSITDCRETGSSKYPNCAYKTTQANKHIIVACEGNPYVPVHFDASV
Description: Measurements of RNase activity after incubation with HOCl, HOBr or PM. In kind it is biochemical. The conditions noted are these: for effect on RNase activity: RNase 15 μg/mL incubated with different concentrations of the substance at 37° C. for 2 h. The protocol: FIG. 1. […] RNase (15 μg/mL) was incubated alone or with different concentrations of HOCl, HOBr or PM at 37° C. for 2 h. Enzymatic activity was determined as described under Experimental Procedures.
Measurements of RNase Activity—RNase activity was determined by measuring the formation of acid-soluble oligonucleotide as described by Kalnitsky et al, with some modifications previously described by Voziyan et al. For the assay, 100 μL of 3 μg/mL RNase in 100 mM sodium acetate, pH 5.0, was mixed with 100 μL of 1% yeast RNA in the same buffer. After the incubation at 37° C. for 5 min, the reaction was stopped by the addition of 100 μL of an ice-cold solution of 0.8% lanthanum nitrate in 18% perchloric acid. The incubations were kept on ice for 5 min to ensure complete precipitation of undigested RNA and then centrifuged at 12000 g for 10 min. An aliquot of the supernatant (20 μL) was diluted to 1 mL with distilled water, the amount of digested (solubilized) RNA was determined by measuring the absorbance at 260 nm. The activity of RNase incubated either alone or with PM or an amino acid substitute at 37° C. was monitored separately and used as a reference for each incubation time.

In a further assay the test system is EHS collagen IV. Description: Chlorination of type IV collagen by HOCl, N-chloramine assay. In kind it is biochemical, murine. To be noted: HOCl with equimolar PM, 1 h.
Assay [2] relates to RNase. Description: LC-MS/MS analysis of RNase modifications (halogenation of Tyr-92 and Tyr-97). In kind it is biochemical. The conditions noted are these: RNase with HOCl or HOBr, with or without PM. Here is the method:
FIG. 3A. Modification of functionally important chlorinated Tyr species (Y-92 and Y-97) in RNase by HOCl and protection by PM. *P<0.05, control vs. HOCl (n=3); **P<0.05, HOCl vs. HOCl+PM (n=3).
FIG. 3B. Modification of functionally important chlorinated Tyr species (Y-92 and Y-97) in RNase by HOBr and protection by PM. *P<0.05, control vs. HOBr; **P<0.05, HOBr vs. HOBr+PM.
LC-MS/MS analysis of RNase modifications—The site-specific modifications in RNase were analyzed by tandem mass spectrometry. The samples were prepared using the spin filter protocol for proteomic analysis. RNase samples were digested either with trypsin. The data-dependent scanning was performed using a LTQ Orbitrap^TM (Thermo Fischer Scientific, San Jose, Calif.) mass spectrometer equipped with an Eksigent AS1 autosampler and an Eksigent 1D+HPLC pump attached directly to the instrument's nanospray source. The peptides were separated on a capillary tip, 100 μm×18 cm, packed with C18 resin (Jupiter C18, 3 μm, 300 Å, Phenomenex, Torrance, Calif.) using an inline vented trapping column that was 100 μm×6 cm. […]
The data generated from the data-dependent LC-MS/MS experiments were analyzed using Sequest. […] The peak containing the peptide of interest was extracted from the chromatogram and the area of the peak was determined using Xcalibur™ software. […]

Assay [3] has as its system integrin α1β1 binding to collagen IV. Put plainly: Modification of collagen IV and integrin binding assay (solid phase). On the set-up: species or system Human. To be noted: 0.1 mM HOCl or HOBr with 0.1 mM PM, 1 h; integrin 1 μg/mL, 2 h at 30° C. Here is the method: FIG. 6B. EHS Collagen IV was coated onto 96-well plate overnight at 4° C. Collagen IV was incubated with 0.1 mM HOCl or HOBr either with or without 0.1 mM PM for 1 h at 37° C. Collagen IV was then incubated with 1 μg/mL of integrin α1β1 for 2 h at 30° C. Integrin binding was detected in solid phase binding assay using integrin α1β1 antibody. The bars represent background-subtracted […] binding±SD (n=4). *P<0.05, control vs. HOCl or HOBr; **P<0.05, HOCl or HOBr vs. HOCl+PM or HOBr+PM.
Modification of Collagen IV and Integrin Binding Assay—20 μg/mL of type IV collagen in 20 mM sodium phosphate buffer, 7.5, was immobilized on 96 well plates at 4° C. overnight. Nonspecific binding sites were blocked with 1% BSA in TBS for 2 hr at 30° C. as previously described. Wells were washed five times with either TBS or 100 mM sodium phosphate, pH 7.5, before being incubated in the same buffer with or without HOCl/HOBr alone or HOCl/l HOBr plus PM. […] After extensive washing, the bound antibodies were detected using alkaline phosphatase-conjugated anti-mouse IgG antibodies. p-Nitrophenyl phosphate substrate (Sigma) was added to the wells, and absorbance was read at 410 nm. Readings from the samples containing EDTA were subtracted from all the data to obtain the baseline corrected magnesium dependent binding.

Description for EHS collagen IV: N-Chloramine Assay/ TMB Assay—The presence of N-chloramines were determined by the method of Witko et al. [3] and Dypbukt et al. [4]. The former method is based on the colorimetric measurement of triiodide ions formed by the oxidation of potassium iodide (KI) in solution. Chloroamine-T, a commercially available source of N-chloramine, was used to calibrate the assay. 100 mM chloramine-T solution was made fresh in distilled H2O. The 100 mM chloramines-T was diluted to final concentrations ranging from 20 to 100 μM immediately before use. The direct oxidation of Kl by NaOCl was also determined and these values were subtracted as background from the corresponding treated samples. The resulting difference represented the amount of N-chloramine present in each sample. In the latter method the developing reagent was composed of 2 mM TMB in 400 mM acetate buffer, pH 5.4, containing 10% dimethlyforamide and 100 μM sodium iodide. This solution was prepared by dissolving TMB in 100% DMF, diluting with acetate buffer to get the desired final concentration of TMB, and then adding sodium iodide. When the developing reagent was mixed with the solutions of chloramines, the final concentration of TMB was always at least 10 times that of the concentration of chloramines. This prevented further oxidation of the blue product. […]

On to `OCl` [HOCl, hypochlorous acid], for which the “effect on RNase activity” value at RNase [1] is recorded as “inhibit RNase activity”.
Same read-out and setting: under `OBr` [HOBr, hypobromous acid] stands “inhibit RNase activity”.
Consider `Cc1ncc(CO)c(CN)c1O` [PM, Pyridoxamine], for which the “effect on RNase activity” value at RNase [1] was “no effect on activity”. Also, the “protection of RNase enzymatic activity against hypohalous acids” value at RNase [1] (RNase with HOCl or HOBr plus PM) was “protected enzymatic activity”. In addition, in the assay on EHS collagen IV, the “chlorination of collagen IV by hypochlorous acid (protein chloramine content)” value is on record as “significantly inhibited chlorination”. For the same molecule, the “halogenation of Tyr-92 and Tyr-97 residues in RNase” value in the assay on RNase [2] is reported as “inhibited halogenation”. Further, the “binding of integrin α1β1 to collagen IV in the presence of HOCl or HOBr” value in assay [3] is listed as “protected binding”.
